According to ChEMBL document CHEMBL1201862, “PubChem BioAssay data set” (2004):
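Protocol summary: plate cells (96-well), add compound at 5 concentrations, incubate 48 h, interpolate endpoints linearly. GI50 marks 50% less growth.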 Activity calls are given as the source filed them. Cut-off read from the data, not from the text of the source: active = GI50 up to about 1.1 µM and inactive = higher.

Columns and labels:
Assay in all cases: NCI-60 cell line screen, 48 h
BT-549 = system: BT-549
T47D = system: T47D
KM-20L2 = system: KM-20L2
HT-29 = system: HT-29
OVCAR-5 = system: OVCAR-5
EKVX = system: EKVX
TK-10 = system: TK-10
DU-145 = system: DU-145
Hs-578T = system: Hs-578T
MOLT-4 = system: MOLT-4
SNB-75 = system: SNB-75
UACC-257 = system: UACC-257
786-0 = system: 786-0
UACC-62 = system: UACC-62
COLO 205 = system: COLO 205
SK-MEL-5 = system: SK-MEL-5
HOP-62 = system: HOP-62
MDA-MB-231 = system: MDA-MB-231
M14 = system: M14
SN12C = system: SN12C
MDA-MB-435 = system: MDA-MB-435
CAKI-1 = system: CAKI-1
SK-MEL-2 = system: SK-MEL-2
HCT-116 = system: HCT-116
OVCAR-4 = system: OVCAR-4
NCI/ADR-RES = system: NCI/ADR-RES
SF-539 = system: SF-539
NCI-H460 = system: NCI-H460
NCI-H226 = system: NCI-H226
MCF7 = system: MCF7
A549 = system: A549
SW-620 = system: SW-620
CCRF-CEM = system: CCRF-CEM
UO-31 = system: UO-31
MDA-N = system: MDA-N
SK-MEL-28 = system: SK-MEL-28
SR = system: SR
HCC 2998 = system: HCC 2998
SF-295 = system: SF-295
KM12 = system: KM12
RPMI-8226 = system: RPMI-8226
U-251 = system: U-251
NCI-H23 = system: NCI-H23
OVCAR-8 = system: OVCAR-8
HL-60 = system: HL-60
IGROV-1 = system: IGROV-1
OVCAR-3 = system: OVCAR-3
SF-268 = system: SF-268
SNB-19 = system: SNB-19
ACHN = system: ACHN
HOP-92 = system: HOP-92
SK-OV-3 = system: SK-OV-3
PC-3 = system: PC-3
HCT-15 = system: HCT-15
RXF 393 = system: RXF 393
NCI-H522 = system: NCI-H522
Malme-3M = system: Malme-3M
K562 = system: K562
A498 = system: A498
LOX IMVI = system: LOX IMVI

## COc1ccc(/C=C\c2cc(OC)c(OC)c(OC)c2)cc1O [COMBRETASTATIN A4]
BT-549
  GI50: > 10 µM (inactive)
T47D
  GI50: 41 µM (inactive)
KM-20L2
  GI50: 1.61 µM (inactive)
HT-29
  GI50: 1.72 µM (inactive)
OVCAR-5
  GI50: 0.34 µM (active)
EKVX
  GI50: 1.22 µM (inactive)
TK-10
  GI50: 0.204 µM (active)
DU-145
  GI50: 0.01 µM (active)
Hs-578T
  GI50: 0.583 µM (active)

## Cc1ccc(S(=O)(=O)NC(=O)Nc2nc[nH]n2)cc1
MOLT-4
  GI50: > 100 µM (inactive)
SNB-75
  GI50: > 100 µM (inactive)
UACC-257
  GI50: > 100 µM (inactive)
786-0
  GI50: > 100 µM (inactive)
UACC-62
  GI50: > 100 µM (inactive)
BT-549
  GI50: > 100 µM (inactive)
T47D
  GI50: > 100 µM (inactive)
COLO 205
  GI50: > 100 µM (inactive)
SK-MEL-5
  GI50: > 100 µM (inactive)
HOP-62
  GI50: > 100 µM (inactive)
MDA-MB-231
  GI50: > 100 µM (inactive)
M14
  GI50: > 100 µM (inactive)
SN12C
  GI50: > 100 µM (inactive)
MDA-MB-435
  GI50: > 100 µM (inactive)
CAKI-1
  GI50: > 100 µM (inactive)
SK-MEL-2
  GI50: > 100 µM (inactive)
HCT-116
  GI50: > 100 µM (inactive)
OVCAR-4
  GI50: > 100 µM (inactive)
NCI/ADR-RES
  GI50: > 100 µM (inactive)
SF-539
  GI50: > 100 µM (inactive)
HT-29
  GI50: > 100 µM (inactive)
NCI-H460
  GI50: > 100 µM (inactive)
NCI-H226
  GI50: > 100 µM (inactive)
MCF7
  GI50: > 100 µM (inactive)
A549
  GI50: > 100 µM (inactive)
SW-620
  GI50: > 100 µM (inactive)
CCRF-CEM
  GI50: > 100 µM (inactive)
UO-31
  GI50: > 100 µM (inactive)
MDA-N
  GI50: > 100 µM (inactive)
OVCAR-5
  GI50: > 100 µM (inactive)
SK-MEL-28
  GI50: > 100 µM (inactive)
SR
  GI50: > 100 µM (inactive)
HCC 2998
  GI50: > 100 µM (inactive)
EKVX
  GI50: > 100 µM (inactive)
SF-295
  GI50: > 100 µM (inactive)
KM12
  GI50: > 100 µM (inactive)
RPMI-8226
  GI50: > 100 µM (inactive)
U-251
  GI50: > 100 µM (inactive)
NCI-H23
  GI50: > 100 µM (inactive)
OVCAR-8
  GI50: > 100 µM (inactive)
HL-60
  GI50: > 100 µM (inactive)
TK-10
  GI50: > 100 µM (inactive)
IGROV-1
  GI50: > 100 µM (inactive)
OVCAR-3
  GI50: > 100 µM (inactive)
SF-268
  GI50: > 100 µM (inactive)
SNB-19
  GI50: > 100 µM (inactive)
ACHN
  GI50: > 100 µM (inactive)
HOP-92
  GI50: > 100 µM (inactive)
SK-OV-3
  GI50: > 100 µM (inactive)
PC-3
  GI50: > 100 µM (inactive)
HCT-15
  GI50: > 100 µM
RXF 393
  GI50: > 100 µM (inactive)
DU-145
  GI50: > 100 µM (inactive)
NCI-H522
  GI50: > 100 µM (inactive)
Malme-3M
  GI50: > 100 µM (inactive)
Hs-578T
  GI50: > 100 µM (inactive)
K562
  GI50: > 100 µM (inactive)
A498
  GI50: > 100 µM (inactive)

## Cc1sc2[nH]c(=O)oc(=O)c2c1C
MOLT-4
  GI50: 48.5 µM (inactive)
SNB-75
  GI50: > 55.8 µM (inactive)
UACC-257
  GI50: > 100 µM (inactive)
786-0
  GI50: 70.3 µM (inactive)
UACC-62
  GI50: 52.1 µM (inactive)
BT-549
  GI50: 22.9 µM (inactive)
T47D
  GI50: > 86.5 µM (inactive)
COLO 205
  GI50: 59 µM (inactive)
SK-MEL-5
  GI50: 48.3 µM (inactive)
HOP-62
  GI50: 72.8 µM (inactive)
MDA-MB-231
  GI50: > 70.8 µM (inactive)
M14
  GI50: > 61.9 µM (inactive)
SN12C
  GI50: > 76.2 µM (inactive)
MDA-MB-435
  GI50: 39.9 µM (inactive)
CAKI-1
  GI50: 35.8 µM (inactive)
SK-MEL-2
  GI50: 37.7 µM (inactive)
HCT-116
  GI50: > 100 µM (inactive)
OVCAR-4
  GI50: 67.6 µM (inactive)
NCI/ADR-RES
  GI50: 35.1 µM (inactive)
SF-539
  GI50: 58.3 µM (inactive)
HT-29
  GI50: > 71.9 µM (inactive)
NCI-H460
  GI50: > 100 µM (inactive)
NCI-H226
  GI50: > 74.5 µM (inactive)
MCF7
  GI50: 26.1 µM (inactive)
A549
  GI50: > 83.8 µM (inactive)
SW-620
  GI50: > 80.4 µM (inactive)
CCRF-CEM
  GI50: 39.6 µM (inactive)
UO-31
  GI50: 33 µM (inactive)
MDA-N
  GI50: 58.2 µM (inactive)
OVCAR-5
  GI50: > 100 µM (inactive)
SK-MEL-28
  GI50: > 71.8 µM (inactive)
SR
  GI50: 37.8 µM (inactive)
HCC 2998
  GI50: > 88.5 µM (inactive)
EKVX
  GI50: > 100 µM (inactive)
SF-295
  GI50: > 77.8 µM (inactive)
LOX IMVI
  GI50: 44.6 µM (inactive)
KM12
  GI50: 34.9 µM (inactive)
RPMI-8226
  GI50: 41.2 µM (inactive)
U-251
  GI50: 51.4 µM (inactive)
NCI-H23
  GI50: > 100 µM (inactive)
OVCAR-8
  GI50: 65.8 µM (inactive)
HL-60
  GI50: 37 µM (inactive)
TK-10
  GI50: > 100 µM (inactive)
IGROV-1
  GI50: > 75.3 µM (inactive)
OVCAR-3
  GI50: 55 µM (inactive)
SF-268
  GI50: 53.8 µM (inactive)
SNB-19
  GI50: > 100 µM (inactive)
ACHN
  GI50: 97.7 µM (inactive)
HOP-92
  GI50: > 100 µM (inactive)
SK-OV-3
  GI50: > 100 µM (inactive)
PC-3
  GI50: > 100 µM (inactive)
HCT-15
  GI50: > 89.9 µM
RXF 393
  GI50: > 100 µM (inactive)
DU-145
  GI50: > 100 µM (inactive)
NCI-H522
  GI50: 26 µM (inactive)
Malme-3M
  GI50: > 72.1 µM (inactive)
Hs-578T
  GI50: 28.6 µM (inactive)
K562
  GI50: > 96.4 µM (inactive)
A498
  GI50: > 100 µM (inactive)

## CC(=O)O[C@H]1C(=O)[C@@]2(C)[C@H]([C@H](OC(=O)c3ccccc3)[C@]3(O)C[C@H](OC(=O)[C@H](O)[C@@H](NC(=O)C(C)(O)C(C)O)c4ccccc4)C(C)=C1C3(C)C)[C@]1(OC(C)=O)CO[C@@H]1C[C@@H]2O (stereo partly drawn)
MOLT-4
  GI50: 0.282 µM (active)
SNB-75
  GI50: 0.0514 µM (active)
UACC-257
  GI50: 0.381 µM (active)
786-0
  GI50: 1.33 µM (inactive)
UACC-62
  GI50: 0.242 µM (active)
BT-549
  GI50: 0.142 µM (active)
T47D
  GI50: 0.929 µM (active)
COLO 205
  GI50: 0.0933 µM (active)
SK-MEL-5
  GI50: 0.207 µM (active)
HOP-62
  GI50: 0.282 µM (active)
MDA-MB-231
  GI50: 0.359 µM (active)
M14
  GI50: 0.337 µM (active)
SN12C
  GI50: 0.485 µM (active)
MDA-MB-435
  GI50: 0.0352 µM (active)
CAKI-1
  GI50: 15.5 µM (inactive)
SK-MEL-2
  GI50: 0.124 µM (active)
HCT-116
  GI50: 0.14 µM (active)
OVCAR-4
  GI50: 13.2 µM (inactive)
NCI/ADR-RES
  GI50: > 50 µM (inactive)
SF-539
  GI50: 0.112 µM (active)
HT-29
  GI50: 0.128 µM (active)
NCI-H460
  GI50: 0.282 µM (active)
MCF7
  GI50: 0.076 µM (active)
A549
  GI50: 0.573 µM (active)
SW-620
  GI50: 0.195 µM (active)
CCRF-CEM
  GI50: 0.183 µM (active)
UO-31
  GI50: 27.6 µM (inactive)
MDA-N
  GI50: 0.0308 µM (active)
OVCAR-5
  GI50: 0.687 µM (active)
SR
  GI50: 0.133 µM (active)
HCC 2998
  GI50: 0.141 µM (active)
EKVX
  GI50: > 50 µM (inactive)
SF-295
  GI50: 3.72 µM (inactive)
LOX IMVI
  GI50: 0.607 µM (active)
KM12
  GI50: 0.167 µM (active)
RPMI-8226
  GI50: 0.0865 µM (active)
U-251
  GI50: 0.239 µM (active)
NCI-H23
  GI50: 0.282 µM (active)
OVCAR-8
  GI50: 1.42 µM (inactive)
HL-60
  GI50: 0.0859 µM (active)
TK-10
  GI50: 5.69 µM (inactive)
IGROV-1
  GI50: 0.205 µM (active)
OVCAR-3
  GI50: 0.172 µM (active)
SF-268
  GI50: 0.31 µM (active)
SNB-19
  GI50: 0.796 µM (active)
ACHN
  GI50: 14.4 µM (inactive)
HOP-92
  GI50: 0.44 µM (active)
SK-OV-3
  GI50: 0.231 µM (active)
PC-3
  GI50: 0.226 µM (active)
HCT-15
  GI50: 17 µM
RXF 393
  GI50: 0.316 µM (active)
DU-145
  GI50: 0.927 µM (active)
NCI-H522
  GI50: 0.107 µM (active)
Malme-3M
  GI50: 0.226 µM (active)
Hs-578T
  GI50: 0.0964 µM (active)
K562
  GI50: 0.172 µM (active)
A498
  GI50: 9.44 µM (inactive)
